system: TNF-α production from human whole blood; test: Inhibition of TNF-α production from human whole blood (hWBA); type: cell-based; conditions: Table A; human whole blood diluted 1:1, LPS stimulation, 3.5 h, TNF-α by ELISA
Description: Assay for Inhibition of TNF-α Production from Human Whole Blood (hWBA)
Human whole blood was diluted 1:1 with serum free medium (RPMI, L-glutamine, Pen-Strep, HEPES) and incubated with a test compound in a final volume of 360 μL for 1 h at 37° C. Forty microliters of LPS (10 μg/mL) was then added. Supernatant was collected after 3.5 h incubation and the concentration of TNF-α was determined by ELISA (R&D Systems). The concentration of the test compound which inhibits 50% of the amount of TNF-α from the control untreated control was determined.

Row | SMILES | IC50
1 | COc1ccc2c(c1)C(=O)N(C[C@@](O)(C(=O)O)c1cc3cnccc3[nH]1)C2 [Compound 1120B] | > 10000 nM
2 | COc1ccc2c(c1)C(=O)N(C[C@@](N)(C(=O)O)c1cc3cnccc3o1)C2 [Compound 1120A] | > 10000 nM
3 | COc1c(F)cc2c(c1F)C(=O)N(C[C@@]1(C#Cc3ccc(C(N)=O)cc3)NC(=O)NC1=O)C2 [Compound 1180] | 1430 nM
4 | CCN1CCCN(c2ccc(O)c(CC(=O)[C@]3(CN4Cc5ccc(OC)c(F)c5C4=O)NC(=O)NC3=O)n2)CC1 [Compound 1707] | 1570 nM
5 | COc1c(F)cc2c(c1F)C(=O)N(CC1(C#Cc3ccc(C4(CN)NC(=O)NC4=O)cc3)NC(=O)NC1=O)C2 (centres unmarked) [Compound 1150] | > 10000 nM
6 | CCN1CCN(C(=N)c2ccc3oc([C@]4(CN5Cc6ccc(OC)cc6C5=O)NC(=O)NC4=O)cc3n2)CC1 [Compound 1501] | 1890 nM
7 | COC(=O)[C@@](CN1Cc2ccc(OC)c(F)c2C1=O)(NC(N)=O)c1cc2nc(Cl)c(F)cc2o1 [Compound 1304] | 3100 nM
8 | COc1ccc2c(c1)C(=O)N(C[C@@]1(C(=O)Cc3nc(Nc4cn[nH]c4)ccc3O)NC(=O)NC1=O)C2 [Compound 1705] | 292 nM

Next, values leading:

Row | IC50 | SMILES
9 | > 10000 nM | COc1c(F)cc2c(c1F)C(=O)N(CC1(c3cc4nc(N5CCC(N(C)C)CC5)ccc4o3)NC(=O)NC1=O)C2 (centres unmarked) [Compound 1190]
10 | > 10000 nM | O=C1NC(=O)[C@](CN2Cc3ccc4oc(Cc5ccccc5)cc4c3C2=O)(c2cc3ncccc3o2)N1 [Compound 1703]
11 | 640 nM | COc1ccc2c(c1)C(=O)N(C[C@@]1(c3cc4nc(C(=N)NO)ccc4o3)NC(=O)NC1=O)C2 [Compound 1500]
12 | 7140 nM | COc1c(F)cc2c(c1F)C(=O)N(C[C@@]1(c3cc4cnccc4o3)NC(=O)NC1=O)C2 [Compound 1160]
13 | > 10000 nM | COCc1cc2c3c(ccc2o1)CN(C[C@@]1(c2cc4ncccc4o2)NC(=O)NC1=O)C3=O [Compound 1702]
14 | 501 nM | Cc1cc2cc3c(c(F)c2o1)C(=O)N(CC1(c2cc4nc(-c5cn[nH]c5)ccc4o2)NC(=O)NC1=O)C3 (centres unmarked) [Compound 1700]
15 | > 10000 nM | O=C1NC(=O)[C@](CN2Cc3ccc4oc(C5CC5)cc4c3C2=O)(c2cc3ncccc3o2)N1 [Compound 1704]
16 | > 10000 nM | Cc1cc2c3c(ccc2o1)CN(C[C@@]1(c2cc4ncccc4o2)NC(=O)NC1=O)C3=O [Compound 1701]
17 | > 10000 nM | COc1c(F)cc2c(c1F)C(=O)N(CC1(c3cc4cnccc4o3)NC(=O)NC1=O)C2 (centres unmarked) [Compound 1165]
18 | 1820 nM | COc1ccc2c(c1)C(=O)N(C[C@@]1(c3cc4nc(C(=N)N5CCCN(C)CC5)ccc4o3)NC(=O)NC1=O)C2 [Compound 1502]
19 | 7120 nM | COc1c(F)cc2c(c1F)C(=O)N(C[C@@]1(c3cc4ncccc4o3)NC(=O)NC1=O)C2 [Compound 1175]
20 | > 10000 nM | COc1c(F)cc2c(c1F)C(=O)N(CC1(c3cc4ncccc4o3)NC(=O)NC1=O)C2 (centres unmarked) [Compound 1170]

same assay, conditions: Table B; human whole blood diluted 1:1, LPS stimulation, 3.5 h, TNF-α by ELISA

Row | SMILES | IC50
21 | COc1ccc2c(c1)C(=O)N(C[C@@]1(c3cc4ccc5c(c4o3)CCC53CNC(=O)N3)NC(=O)NC1=O)C2 (some centres unmarked) [Compound 2215] | 628 nM
22 | COc1ccc2c(c1)CCN(C[C@@]1(c3cc4c5c(ccc4o3)C3(CC5)NC(=O)NC3=O)NC(=O)NC1=O)C2=O (some centres unmarked) [Compound 2203] | 3560 nM
23 | CCCN(C)C(=NO)c1ccc(C#C[C@]2(CN3Cc4ccc(OC)cc4C3=O)NC(=O)NC2=O)cc1 [Compound 2224] | 239 nM
24 | CCN(CC)C(=NO)c1ccc(C#C[C@]2(CN3Cc4ccc(OC)cc4C3=O)NC(=O)NC2=O)cc1 [Compound 2234] | 205 nM
25 | CCN(CC)CCN(C)/C(=N/O)c1ccc2oc([C@]3(CN4Cc5ccc(OC)cc5C4=O)NC(=O)NC3=O)cc2c1 [Compound 2207] | 308 nM
26 | COc1ccc2c(c1)C(=O)N(C[C@@]1(C(=O)Cc3nc(NC4CCN(C)CC4)ccc3O)NC(=O)NC1=O)C2 [Compound 2241] | 1270 nM
27 | COc1ccc2c(c1)C(=O)N(C[C@@]1(C#Cc3ccc(C(C(=O)O)N4CCCN(C(=O)OC(C)(C)C)CC4)cc3)NC(=O)NC1=O)C2 (some centres unmarked) [Compound 2238] | 1020 nM
28 | COc1ccc2c(c1)C(=O)N(C[C@@]1(c3cc4cc(/C(=N\O)N(C)CCN(C)C)ccc4o3)NC(=O)NC1=O)C2 [Compound 2206] | 384 nM
29 | COc1ccc2c(c1)C(=O)N(C[C@@]1(C#Cc3ccc(C(=O)NS(N)(=O)=O)cc3)NC(=O)NC1=O)C2 [Compound 2230] | 434 nM
30 | CCN(CC)CCN(C)C(=NO)c1ccc(C#C[C@]2(CN3Cc4ccc(OC)cc4C3=O)NC(=O)NC2=O)cc1 [Compound 2229] | 96 nM
31 | COc1ccc2c(c1)C(=O)N(C[C@@]1(C#Cc3ccc(NC(=S)NCCN4CCOCC4)cc3)NC(=O)NC1=O)C2 [Compound 2239] | 267 nM
32 | COc1ccc2c(c1)C(=O)N(C[C@@]1(C#Cc3ccc(C(=NO)N(C)C)s3)NC(=O)NC1=O)C2 [Compound 2227] | 813 nM
33 | COc1ccc2c(c1)C(=O)N(C[C@@]1(c3cc4ccc5c(c4o3)CCC53NC(=O)NC3=O)NC(=O)NC1=O)C2 (some centres unmarked) [Compound 2214] | 1010 nM
34 | CCN(CC)CCN(CC)/C(=N/O)c1ccc2oc([C@]3(CN4Cc5ccc(OC)cc5C4=O)NC(=O)NC3=O)cc2c1 [Compound 2208] | 281 nM
35 | COc1ccc2c(c1)C(=O)N(C[C@@]1(C#Cc3ccc(C(C(N)=O)N4CCCN(C(=O)OC(C)(C)C)CC4)cc3)NC(=O)NC1=O)C2 (some centres unmarked) [Compound 2237] | 1180 nM
36 | COc1ccc2c(c1)C(=O)N(C[C@@]1(C#Cc3ccc(C(=NO)N(C)C)cc3)NC(=O)NC1=O)C2 [Compound 2231] | 152 nM
37 | COc1ccc2c(c1)C(=O)N(C[C@@]1(C#Cc3ccc(C(=NO)N(C)CCN(C)C)cc3)NC(=O)NC1=O)C2 [Compound 2228] | 91 nM

Results, then the compound that gave them:

Row | IC50 | SMILES
38 | 187 nM | COc1ccc2c(c1)C(=O)N(C[C@@]1(c3cc4c5c(ccc4o3)C3(CC5)NC(=O)NC3=O)NC(=O)NC1=O)C2 (some centres unmarked) [Compound 2210]
39 | 570 nM | COc1ccc2c(c1)C(=O)N(C[C@@]1(c3cc4c5c(ccc4o3)C3(CCC5)NC(=O)NC3=O)NC(=O)NC1=O)C2 (some centres unmarked) [Compound 2211]
40 | 1370 nM | COc1ccc2c(c1)CCN(C[C@@]1(c3cc4cnccc4o3)NC(=O)NC1=O)C2=O [Compound 2219]
41 | ≥ 10000 nM | COc1c(Cl)cc2c(c1Cl)C(=O)N(C[C@@]1(c3cc4cnccc4o3)NC(=O)NC1=O)C2 [Compound 2201]
42 | 145 nM | COc1ccc2c(c1F)C(=O)N(C[C@@]1(c3cc4c5c(ccc4o3)C3(CC5)NC(=O)NC3=O)NC(=O)NC1=O)C2 (some centres unmarked) [Compound 2216]
43 | 284 nM | COc1ccc2c(c1)CCN(C[C@@]1(c3cc4nc(-c5cn[nH]c5)ccc4o3)NC(=O)NC1=O)C2=O [Compound 2218]
44 | 1940 nM | COc1ccc2c(c1)CCN(C[C@@]1(c3cc4c5c(ccc4o3)CNC5=O)NC(=O)NC1=O)C2=O [Compound 2217]
45 | 307 nM | COc1ccc2c(c1)C(=O)N(C[C@@]1(c3cc4nc(C(=N)N)ccc4o3)NC(=O)NC1=O)C2 [Compound 2200]
46 | 1000 nM | COc1ccc2c(c1)C(=O)N(C[C@@]1(c3cc4c5c(ccc4o3)CCC53NC(=O)NC3=O)NC(=O)NC1=O)C2 (some centres unmarked) [Compound 2223]
47 | 335 nM | COc1ccc2c(c1)C(=O)N(C[C@@]1(c3cc4c5c(ccc4o3)C3(CC5)CNC(=O)N3)NC(=O)NC1=O)C2 (some centres unmarked) [Compound 2213]
48 | 315 nM | COc1ccc2c(c1)C(=O)N(C[C@@]1(c3cc4cc(NS(N)(=O)=O)ccc4o3)NC(=O)NC1=O)C2 [Compound 2209]

system: not listed separately; test: Area under the curve determination of plasma levels in rats (rapid rat AUC); type: in vivo; conditions: Table A, oral, 10 mg/kg, blood 0.5-6 h post-dosing, read-out: RR AUC
Description: Area Under the Curve Determinations of Plasma Levels in Rats (rrAUC)
To gain insight into the pharmacokinetic properties of the compounds of formula (I), plasma levels of the compounds in rats were determined according to the protocol described in Korfmacher, W. A.; Cox, K. A.; Ng, K. J.; Veals, J.; Hsieh, Y.; Wainhaus, S.; Broske, L.; Prelusky, D.; Nomeir, A.; White, R. E. Rapid Commun. Mass Spectrom, 2001, 15, 335, Briefly, rats, after an overnight fast, were dosed orally with the test compound at a dose of 10 mg/kg in a 5 mL/kg dose volume. Blood was collected at 0.5, 1, 2, 3, 4, and 6 h post-dosing. Mass spectrometry using high performance liquid chromatography was used to identify and measure the concentrations of the test compounds in the plasma at the various time points. The parent ion of each test compound was used to identify and quantitate the compounds in plasma.

Row | AUC | SMILES
49 | 0.113 µM·h | COC(=O)[C@@](CN1Cc2ccc(OC)c(F)c2C1=O)(NC(N)=O)c1cc2nc(Cl)c(F)cc2o1 [Compound 1304]

same assay, conditions: Table B, oral, 10 mg/kg, blood 0.5-6 h post-dosing, read-out: RR AUC

Row | AUC | SMILES
50 | 0.321 µM·h | COc1ccc2c(c1)C(=O)N(C[C@@]1(c3cc4c5c(ccc4o3)C3(CC5)NC(=O)NC3=O)NC(=O)NC1=O)C2 (some centres unmarked) [Compound 2210]
51 | 0.055 µM·h | COc1ccc2c(c1)C(=O)N(C[C@@]1(c3cc4c5c(ccc4o3)C3(CCC5)NC(=O)NC3=O)NC(=O)NC1=O)C2 (some centres unmarked) [Compound 2211]
52 | 1.6 µM·h | COc1ccc2c(c1F)C(=O)N(C[C@@]1(c3cc4c5c(ccc4o3)C3(CC5)NC(=O)NC3=O)NC(=O)NC1=O)C2 (some centres unmarked) [Compound 2216]
53 | 0.128 µM·h | COc1ccc2c(c1)C(=O)N(C[C@@]1(c3cc4ccc5c(c4o3)CCC53NC(=O)NC3=O)NC(=O)NC1=O)C2 (some centres unmarked) [Compound 2214]
